The values below come from article PMC6572176, “Functional Glyco-Nanogels for Multivalent Interaction with Lectins” (Molecules, 2019).

Assay [1] deals with T1, Ulex europaeus agglutinin I (UEA I) (Ulex europaeus, UniProt P22972).
T1 construct: native plant lectin, fluorescein-labeled (Vector Laboratories)
T1 sequence (P22972 1-243): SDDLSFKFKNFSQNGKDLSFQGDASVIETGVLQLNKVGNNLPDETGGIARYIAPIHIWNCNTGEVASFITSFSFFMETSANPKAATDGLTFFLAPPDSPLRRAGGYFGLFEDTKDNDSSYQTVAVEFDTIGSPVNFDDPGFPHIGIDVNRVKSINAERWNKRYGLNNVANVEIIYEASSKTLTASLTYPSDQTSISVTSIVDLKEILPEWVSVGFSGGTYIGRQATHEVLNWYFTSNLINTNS
Briefly: ELISA-type competitive inhibition, fluorescein-labeled lectin on immobilized porcine stomach mucin. In kind it is binding. Conditions: 10 mM HEPES, 150 mM NaCl, 0.1 mM CaCl2, pH 7.5, 1 h.

In assay [2] the target is T2, Erythrina cristagalli lectin (ECL) (Erythrina crista-galli, UniProt P83410).
T2 construct: native plant lectin, fluorescein-labeled (Vector Laboratories); dimeric
T2 sequence (P83410 1-239): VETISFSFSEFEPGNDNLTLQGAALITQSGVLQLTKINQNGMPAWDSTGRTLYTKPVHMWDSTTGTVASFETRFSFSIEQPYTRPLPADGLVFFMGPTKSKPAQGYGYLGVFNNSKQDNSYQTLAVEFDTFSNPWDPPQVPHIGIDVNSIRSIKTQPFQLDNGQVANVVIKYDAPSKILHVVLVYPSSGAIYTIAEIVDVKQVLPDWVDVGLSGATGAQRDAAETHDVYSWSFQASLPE
Briefly: ELISA-type competitive inhibition, fluorescein-labeled lectin on immobilized asialofetuin. In kind it is binding. Conditions: 10 mM HEPES, 150 mM NaCl, 0.1 mM CaCl2, pH 7.5, 1 h.

Take `C[C@@H]1OC(O)[C@@H](O)[C@H](O)[C@@H]1O` (some centres unmarked) [fucose]: in assay [1], the IC50 result is recorded as “The IC50 value of fucose for UEA I binding is three-times”.

`OC[C@H]1O[C@@H](O[C@H]2[C@H](O)[C@@H](O)C(O)O[C@@H]2CO)[C@H](O)[C@@H](O)[C@H]1O` (some centres unmarked) [lactose]: in assay [2], the IC50 result was “free lactose is a potent inhibitor for ECL with IC50 in the same range”.
